From publication PMC6154558, “Discovery and Biological Evaluation of a Series of Pyrrolo[2,3-b]pyrazines as Novel FGFR Inhibitors” (Molecules : A Journal of Synthetic Chemistry and Natural …, 2017)
“And” between values parts separate entries of the source, which are not always exact repeats. Equal values may be shown once.

Experiments:
FGFR1 = biological target: T1, FGFR1 (Homo sapiens, UniProt P11362); assay: ELISA kinase assay, FGFR1; assay type: biochemical; settings: for inhibition at 1 µM: 1 μM compound; for IC50: mean ± SD from two separate experiments; for inhibition at 0.01 µM: 0.01 μM compound
T1 construct: purchased Millipore
Method: (§1) The effects of compounds on the activities of indicated (FGFR1 and c-Met) kinases were determined using enzyme-linked immunosorbent assays (ELISAs) with purified recombinant proteins. Briefly, 20 μg/mL poly (Glu, Tyr)4:1 (Sigma, St. Louis, MO, USA) was pre-coated in 96-well plates as a substrate. A 50-μL aliquot of 10 μmol/L ATP solution diluted in kinase reaction buffer (50 mmol/L HEPES (pH 7.4), 50 mmol/L MgCl2, 0.5 mmol/L MnCl2, 0.2 mmol/L Na3VO4, and 1 mmol/L DTT) was added to each well; 1 μL of various concentrations of compounds diluted in 1% DMSO (v/v) (Sigma) were then added to each reaction well. DMSO (1%, v/v) was used as the negative control. The kinase reaction was initiated by the addition of purified tyrosine kinase proteins FGFR1 (Millipore, Darmstadt, Germany) or c-Met (Millipore) diluted in 49 μL of kinase reaction buffer. After incubation for 60 min at 37 °C, the plate was washed three times with phosphate-buffered saline (PBS) containing 0.1% Tween 20 (T-PBS). Anti-phosphotyrosine (PY99) antibody (Sanra Cruz, Dallas, USA) (100 μL; 1:500, diluted in 5 mg/mL bovine serum albumin (BSA) T-PBS) was then added. After a 30-min incubation at 37 °C, the plate was washed three times, and 100 μL horseradish peroxidase-conjugated goat anti-mouse IgG (Calbiochem, Shanghai, China) (1:2000, diluted in 5 mg/mL BSA T-PBS) was added. The plate was then incubated at 37°C for 30 min and washed 3 times. A 100-μL aliquot of a solution containing 0.03% H2O2 and 2 mg/mL o-phenylenediamine in 0.1 mol/L citrate buffer (pH 5.5) was added. The reaction was terminated by the addition of 50 μL of 2 mol/L H2SO4 as the color changed, and the plate was analyzed using a multi-well spectrophotometer (SpectraMAX 190, Molecular Devices, Palo Alto, CA, USA) at 490 nm. […] (1) where IR, A490 and A490control are the inhibition rate, the absorbance value of the tested compound at 490 nm and the absorbance value of the negative control compound at 490 nm, respectively. The IC50 values were calculated from the inhibition curves in two separate experiments.

c-Met = biological target: T2, c-Met (Homo sapiens, UniProt P08581); assay: ELISA kinase assay, c-Met; assay type: biochemical; settings: for inhibition at 0.01 µM: 0.01 μM compound; for inhibition at 0.1 µM: 0.1 μM compound; for inhibition at 1 µM: 1 μM compound
T2 construct: purchased Millipore
Method: as §1

[1] = 10 μM compound, mean from two separate experiments

T2 sequence (P08581 25-1390): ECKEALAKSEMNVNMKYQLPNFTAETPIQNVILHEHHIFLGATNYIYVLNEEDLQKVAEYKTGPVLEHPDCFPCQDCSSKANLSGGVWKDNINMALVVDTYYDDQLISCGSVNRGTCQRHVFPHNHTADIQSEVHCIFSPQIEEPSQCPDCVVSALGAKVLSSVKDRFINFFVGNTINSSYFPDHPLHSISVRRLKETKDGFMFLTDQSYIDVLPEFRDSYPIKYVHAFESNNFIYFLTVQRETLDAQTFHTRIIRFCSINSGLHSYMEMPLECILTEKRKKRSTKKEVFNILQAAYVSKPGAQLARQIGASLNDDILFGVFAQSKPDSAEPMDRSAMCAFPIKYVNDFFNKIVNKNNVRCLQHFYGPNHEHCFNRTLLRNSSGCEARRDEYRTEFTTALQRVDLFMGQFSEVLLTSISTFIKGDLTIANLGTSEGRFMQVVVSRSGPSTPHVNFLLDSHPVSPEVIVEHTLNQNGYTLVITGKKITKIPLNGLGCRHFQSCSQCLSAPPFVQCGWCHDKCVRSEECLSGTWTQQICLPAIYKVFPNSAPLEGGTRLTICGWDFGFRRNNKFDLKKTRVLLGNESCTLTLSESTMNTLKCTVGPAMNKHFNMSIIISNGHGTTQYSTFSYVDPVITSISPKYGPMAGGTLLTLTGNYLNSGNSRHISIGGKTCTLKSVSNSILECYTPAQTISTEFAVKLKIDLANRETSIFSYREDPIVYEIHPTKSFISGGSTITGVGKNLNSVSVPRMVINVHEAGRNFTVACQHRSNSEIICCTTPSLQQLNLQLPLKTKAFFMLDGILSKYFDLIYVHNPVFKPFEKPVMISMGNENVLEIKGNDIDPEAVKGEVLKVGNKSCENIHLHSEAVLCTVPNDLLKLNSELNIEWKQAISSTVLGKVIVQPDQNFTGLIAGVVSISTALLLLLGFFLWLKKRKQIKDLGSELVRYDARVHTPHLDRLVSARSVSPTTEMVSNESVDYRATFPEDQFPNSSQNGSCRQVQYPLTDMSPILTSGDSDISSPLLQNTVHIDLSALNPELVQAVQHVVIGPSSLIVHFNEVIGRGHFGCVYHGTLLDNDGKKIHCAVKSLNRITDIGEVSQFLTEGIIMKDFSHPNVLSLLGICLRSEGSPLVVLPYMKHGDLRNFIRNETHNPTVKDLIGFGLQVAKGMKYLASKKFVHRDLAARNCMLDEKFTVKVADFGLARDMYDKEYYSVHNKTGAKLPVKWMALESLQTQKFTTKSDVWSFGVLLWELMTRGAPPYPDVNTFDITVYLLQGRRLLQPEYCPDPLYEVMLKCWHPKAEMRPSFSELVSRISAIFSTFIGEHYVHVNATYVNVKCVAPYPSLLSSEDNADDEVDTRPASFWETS
T1 sequence (P11362 22-822): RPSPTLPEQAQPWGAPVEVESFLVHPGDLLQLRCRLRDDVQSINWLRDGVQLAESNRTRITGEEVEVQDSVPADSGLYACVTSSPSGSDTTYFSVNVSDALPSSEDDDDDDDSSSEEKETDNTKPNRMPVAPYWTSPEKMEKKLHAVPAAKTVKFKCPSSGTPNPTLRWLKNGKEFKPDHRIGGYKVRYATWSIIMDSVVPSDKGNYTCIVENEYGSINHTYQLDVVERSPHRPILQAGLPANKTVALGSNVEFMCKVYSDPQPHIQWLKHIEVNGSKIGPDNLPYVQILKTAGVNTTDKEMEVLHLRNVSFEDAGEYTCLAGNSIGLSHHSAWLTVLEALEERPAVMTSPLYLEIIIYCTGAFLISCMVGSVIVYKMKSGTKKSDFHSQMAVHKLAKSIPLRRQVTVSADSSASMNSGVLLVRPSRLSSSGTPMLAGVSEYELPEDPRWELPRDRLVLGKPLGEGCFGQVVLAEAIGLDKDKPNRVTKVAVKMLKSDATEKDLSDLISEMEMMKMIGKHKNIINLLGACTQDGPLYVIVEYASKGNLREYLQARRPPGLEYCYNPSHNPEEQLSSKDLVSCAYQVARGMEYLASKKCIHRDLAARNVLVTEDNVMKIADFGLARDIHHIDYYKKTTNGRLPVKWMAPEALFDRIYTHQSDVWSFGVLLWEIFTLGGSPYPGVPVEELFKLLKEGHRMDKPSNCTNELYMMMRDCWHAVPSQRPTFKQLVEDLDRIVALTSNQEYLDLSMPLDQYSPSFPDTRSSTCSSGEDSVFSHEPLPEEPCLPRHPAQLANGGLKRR

inhibition at 0.1 µM (FGFR1; 0.1 μM compound) [%]	inhibition at 1 µM (FGFR1) [%]	inhibition at 10 µM (FGFR1; [1]) [%]	SMILES	also measured
17.4	12.8	15.5	Cn1cc(-c2cnc3ccn(S(=O)(=O)c4ccc([N+](=O)[O-])cc4)c3n2)cn1 [Compound 18, 3-(1-Methyl-1H-pyrazol-4-yl)-5-((4-nitrophenyl)sulfonyl)-5H-pyrrolo[2,3-b]pyrazine]	–
61.1	76.4	92.1	Cn1cc(-c2cnc3ccn(S(=O)(=O)c4cccc([N+](=O)[O-])c4)c3n2)cn1 [Compound 17, 3-(1-Methyl-1H-pyrazol-4-yl)-5-((3-nitrophenyl)sulfonyl)-5H-pyrrolo[2,3-b]pyrazine]	IC50 (FGFR1): 85.9 ± 21.2 nM; inhibition at 0.01 µM (c-Met): -5.4%; inhibition at 0.1 µM (c-Met): -1.5%; inhibition at 1 µM (c-Met): 30.6%
31.8	24.2	42.4	Cn1cc(-c2cnc3ccn(S(=O)(=O)c4ccc(N)cc4)c3n2)cn1 [Compound 20, 4-((3-(1-Methyl-1H-pyrazol-4-yl)-5H-pyrrolo[2,3-b]pyrazin-5-yl)sulfonyl)aniline]	–
–	47.1	87.8	Cn1cc(-c2cnc3cnn(S(=O)(=O)c4ccccc4)c3c2)cn1 [Compound 4, 6-(1-Methyl-1H-pyrazol-4-yl)-1-(phenylsulfonyl)-1H-pyrazolo[4,3-b]pyridine]	–
22	27.2	45.2	Cn1cc(-c2cnc3ccn(S(=O)(=O)c4ccc(Cl)cc4)c3n2)cn1 [Compound 14, 5-((4-Chlorophenyl)sulfonyl)-3-(1-methyl-1H-pyrazol-4-yl)-5H-pyrrolo[2,3-b]pyrazine]	–
34	62.4	–	COc1cccc2cc(-c3cnc4ccn(S(=O)(=O)c5cccc([N+](=O)[O-])c5)c4n3)[nH]c12 [Compound 28, 3-(7-Methoxy-1H-indol-2-yl)-5-((3-nitrophenyl)sulfonyl)-5H-pyrrolo[2,3-b]pyrazine]	inhibition at 0.01 µM (FGFR1): 27.2%
55.7	63.4	–	CC(=O)Cn1cc(-c2cnc3ccn(S(=O)(=O)c4cccc([N+](=O)[O-])c4)c3n2)cn1 [Compound 25, 1-(4-(5-((3-Nitrophenyl)sulfonyl)-5H-pyrrolo[2,3-b]pyrazin-3-yl)-1H-pyrazol-1-yl)propan-2-one]	inhibition at 0.01 µM (FGFR1): 32.8%; IC50 (FGFR1): 45 nM and 45.9 nM; inhibition at 0.01 µM (c-Met): 5.5%; inhibition at 0.1 µM (c-Met): 5%; inhibition at 1 µM (c-Met): 14.1%
–	15.4	50	Cc1ncc(-c2cnn(C)c2)cc1NS(=O)(=O)c1ccccc1 [Compound 10, N-(2-Methyl-5-(1-methyl-1H-pyrazol-4-yl)pyridin-3-yl)benzenesulfonamide]	–
40.3	32.6	59.7	Cn1cc(-c2cnc3ccn(S(=O)(=O)c4ccccc4C#N)c3n2)cn1 [Compound 13, 2-((3-(1-Methyl-1H-pyrazol-4-yl)-5H-pyrrolo[2,3-b]pyrazin-5-yl)sulfonyl)benzonitrile]	–
13.6	34.8	74.5	Cn1cc(-c2cnc3ccn(S(=O)(=O)c4ccc(Cl)c(Cl)c4)c3n2)cn1 [Compound 16, 5-((3,4-Dichlorophenyl)sulfonyl)-3-(1-methyl-1H-pyrazol-4-yl)-5H-pyrrolo[2,3-b]pyrazine]	–
< 40	60.9	–	CCC(=O)n1cc(-c2cnc3ccn(S(=O)(=O)c4cccc([N+](=O)[O-])c4)c3n2)cn1 [Compound 24, 1-(4-(5-((3-Nitrophenyl)sulfonyl)-5H-pyrrolo[2,3-b]pyrazin-3-yl)-1H-pyrazol-1-yl)propan-1-one]	inhibition at 0.01 µM (FGFR1): 29.3%; FGFR1 Inhibition (%) (FGFR1; 0.1 μM compound, 0.1 µM): 30.2%
26.8	20.8	34.7	Cn1cc(-c2cnc3ccn(S(=O)(=O)C4CCCC4)c3n2)cn1 [Compound 11, 5-(Cyclopentylsulfonyl)-3-(1-methyl-1H-pyrazol-4-yl)-5H-pyrrolo[2,3-b]pyrazine]	–
< 40	58.8	–	CC(=O)n1cc(-c2cnc3ccn(S(=O)(=O)c4cccc([N+](=O)[O-])c4)c3n2)cn1 [Compound 23, 1-(4-(5-((3-Nitrophenyl)sulfonyl)-5H-pyrrolo[2,3-b]pyrazin-3-yl)-1H-pyrazol-1-yl)ethan-1-one]	inhibition at 0.01 µM (FGFR1): 36.5%; FGFR1 Inhibition (%) (FGFR1; 0.1 μM compound, 0.1 µM): 37.8%
23.6	31.2	55.6	Cn1cc(-c2cnc3ccn(S(=O)(=O)c4ccc(F)cc4F)c3n2)cn1 [Compound 15, 5-((2,4-Difluorophenyl)sulfonyl)-3-(1-methyl-1H-pyrazol-4-yl)-5H-pyrrolo[2,3-b]pyrazine]	–
52.2	75.5	–	O=[N+]([O-])c1cccc(S(=O)(=O)n2ccc3ncc(-c4ccc(CO)cc4)nc32)c1 [Compound 27, (4-(5-((3-Nitrophenyl)sulfonyl)-5H-pyrrolo[2,3-b]pyrazin-3-yl)phenyl)methanol]	IC50 (FGFR1): 113 nM and 114 nM; inhibition at 0.01 µM (c-Met): 1.1%; inhibition at 0.1 µM (c-Met): 8.4%; inhibition at 1 µM (c-Met): 30.1%
35.7	57.9	–	CC(=O)c1ccc(-c2cnc3ccn(S(=O)(=O)c4cccc([N+](=O)[O-])c4)c3n2)cc1 [Compound 26, 1-(4-(5-((3-Nitrophenyl)sulfonyl)-5H-pyrrolo[2,3-b]pyrazin-3-yl)phenyl)ethan-1-one]	–
–	31.6	80.4	Cn1cc(-c2cnc3ccn(S(=O)(=O)c4ccccc4)c3c2)cn1 [Compound 8, 6-(1-Methyl-1H-pyrazol-4-yl)-1-(phenylsulfonyl)-1H-pyrrolo[3,2-b]pyridine]	–
34.7	57.5	82.2	Cn1cc(-c2cnc3ccn(S(=O)(=O)c4cccc(N)c4)c3n2)cn1 [Compound 19, 3-((3-(1-Methyl-1H-pyrazol-4-yl)-5H-pyrrolo[2,3-b]pyrazin-5-yl)sulfonyl)aniline]	–
44.7	50.9	79	CC(=O)Nc1cccc(S(=O)(=O)n2ccc3ncc(-c4cnn(C)c4)nc32)c1 [Compound 21, N-(3-((3-(1-Methyl-1H-pyrazol-4-yl)-5H-pyrrolo[2,3-b]pyrazin-5-yl)sulfonyl)phenyl)acetamide]	–
46	–	93.3	Cn1cc(-c2cnc3ccn(S(=O)(=O)c4ccccc4)c3n2)cn1 [Compound 9, 3-(1-Methyl-1H-pyrazol-4-yl)-5-(phenylsulfonyl)-5H-pyrrolo[2,3-b]pyrazine]	FGFR1 Inhibition (%) (FGFR1; 10 μM compound, mean from two separate experiments, 10 µM): 90.5%
29.4	24.1	53.3	Cn1cc(-c2cnc3ccn(S(=O)(=O)C4CCCCC4)c3n2)cn1 [Compound 12, 5-(Cyclohexylsulfonyl)-3-(1-methyl-1H-pyrazol-4-yl)-5H-pyrrolo[2,3-b]pyrazine]	–
–	–	55.9	Cn1cc(-c2cnc3cnn(CCc4ccccc4)c3c2)cn1 [Compound 7, 6-(1-Methyl-1H-pyrazol-4-yl)-1-phenethyl-1H-pyrazolo[4,3-b]pyridine]	–
–	–	46.1	Cn1cc(-c2cnc3cnn(S(=O)(=O)Cc4ccccc4)c3c2)cn1 [Compound 5, 1-(Benzylsulfonyl)-6-(1-methyl-1H-pyrazol-4-yl)-1H-pyrazolo[4,3-b]pyridine]	–
27.7	17.3	38.7	CCC(=O)Nc1cccc(S(=O)(=O)n2ccc3ncc(-c4cnn(C)c4)nc32)c1 [Compound 22, N-(3-((3-(1-Methyl-1H-pyrazol-4-yl)-5H-pyrrolo[2,3-b]pyrazin-5-yl)sulfonyl)phenyl)propionamide]	–
–	–	53	Cn1cc(-c2cnc3cnn(Cc4ccccc4)c3c2)cn1 [Compound 6, 1-Benzyl-6-(1-methyl-1H-pyrazol-4-yl)-1H-pyrazolo[4,3-b]pyridine]	–
